One test relates to IFVA/Weiss/43. Briefly: cytopathic effect (CPE) antiviral test in MDCK cells, IFVA/Weiss/43. It is filed as cell-based, influenza virus. For orientation: Cytopathic effects are the visible damage that an infection or toxin causes in cultured cells.
The next test has as its system IFVA/Mal/302/54. Briefly: cytopathic effect (CPE) antiviral test in MDCK cells, IFVA/Mal/302/54. It is filed as cell-based, influenza virus. Conditions: unidentified influenza virus, MDCK, 120 h, read-out: EC50(IFVA/Mal/302/54), MDCK cells, CPE method, CCK-8 cell viability, 5 days.
Where [1] appears, read: unidentified influenza virus, MDCK, 120 h, read-out: EC50(IFVA/Weiss/43), MDCK cells, CPE method, CCK-8 cell viability, 5 days.

SMILES strings stand for the structures. Read-outs that look alike come from different tables or passages of the source.

These results are taken from US20230079045A1 (priority 2019, published 2023).

Regarding `CC(=O)Nc1ccc2oc(-c3ccnc(C(=O)N4C5CC4CN(C(c4ccccc4)c4nnn(C)n4)C5)c3)nc2c1` (stereo not shown) [Compound 20, N-(2-(2-(3-((2-methyl-2H-tetrazol-5-yl)(phenyl)methyl)-3,6-diazabicyclo[3.1.1]heptane-6-carbonyl)pyridin-4-yl)benzo[d]oxazol-5-yl)acetamide], the EC50 is 0.545 µM in the test on IFVA/Weiss/43 (setting [1]) and 0.919 µM in the test on IFVA/Mal/302/54.

Regarding `Cn1nnc(C(c2ccccc2)N2CC3CC(C2)N3C(=O)c2cc(-c3nc4cc(NC(=O)C5CC5)ccc4o3)ccn2)n1` (stereo not shown) [Compound 21, N-(2-(2-(3-((2-methyl-2H-tetrazol-5-yl)(phenyl)methyl)-3,6-diazabicyclo[3.1.1]heptane-6-carbonyl)pyridin-4-yl)benzo[d]oxazol-5-yl)cyclopropanecarboxamide], the results for the EC50 in the test on IFVA/Weiss/43 (setting [1]) and with IFVA/Mal/302/54 were 0.163 µM and 0.436 µM, respectively.

Take `CC(=O)Nc1ccc2oc(-c3ccnc(C(=O)N4C5CCC4CN(C(c4ccccc4)c4nnn(CCF)n4)C5)c3)nc2c1` (stereo not shown) [Compound 22, N-(2-(2-(3-((2-(2-fluoroethyl)-2H-tetrazol-5-yl)(phenyl)methyl)-3,8-diazabicyclo[3.2.1]octane-8-carbonyl)pyridin-4-yl)benzo[d]oxazol-5-yl)acetamide]: the EC50 in the test on IFVA/Weiss/43 (setting [1]) came out at 0.025 µM; in the test on IFVA/Mal/302/54, 0.033 µM.

With `CC(=O)Nc1ccc2oc(-c3ccnc(C(=O)N4CC5CC(C4)N5C(c4ccccc4)c4nnn(C)n4)c3)nc2c1` (stereo not shown) [Compound 23, N-(2-(2-(6-((2-methyl-2H-tetrazol-5-yl)(phenyl)methyl)-3,6-diazabicyclo[3.1.1]heptane-3-carbonyl)pyridin-4-yl)benzo[d]oxazol-5-yl)acetamide], the EC50 in the test on IFVA/Weiss/43 (setting [1]) and with IFVA/Mal/302/54 was above 10 µM throughout.

On to `Cn1nnc(C(c2ccccc2)N2CCN(C(=O)c3cc(-c4nc5cc(NC(=O)[C@@H]6CC6(F)F)ccc5o4)ccn3)CC2)n1` (stereo partly drawn) [Compound 24, (1S)-2,2-difluoro-N-(2-(2-(4-((2-methyl-2H-tetrazol-5-yl)(phenyl)methyl)piperazine-1-carbonyl)pyridin-4-yl)benzo[d]oxazol-5-yl)cyclopropane-1-carboxamide], for which the EC50 is 0.012 µM in the test with IFVA/Weiss/43 (setting [1]) and 0.032 µM in the test on IFVA/Mal/302/54.

With `Cn1nnc(C(c2ccccc2)N2CCN(C(=O)c3cc(-c4nc5cc(NC(=O)[C@@H]6C[C@H]6F)ccc5o4)ccn3)CC2)n1` (stereo partly drawn) [Compound 25, (1S,2R)-2-fluoro-N-(2-(2-(4-((2-methyl-2H-tetrazol-5-yl)(phenyl)methyl)piperazine-1-carbonyl)pyridin-4-yl)benzo[d]oxazol-5-yl)cyclopropane-1-carboxamide], the EC50 in the test with IFVA/Weiss/43 (setting [1]) amounted to 0.06 µM; with IFVA/Mal/302/54 it was 0.068 µM.

As to `Cn1nnc(C(c2ccccc2)N2CCN(C(=O)c3cc(-c4nc5cc(NC(=O)[C@@H]6C[C@@H]6F)ccc5o4)ccn3)CC2)n1` (stereo partly drawn) [Compound 26, (1S,2S)-2-fluoro-N-(2-(2-(4-((2-methyl-2H-tetrazol-5-yl)(phenyl)methyl)piperazine-1-carbonyl)pyridin-4-yl)benzo[d]oxazol-5-yl)cyclopropane-1-carboxamide], the EC50 in the test with IFVA/Weiss/43 (setting [1]) came out at 0.003 µM; in the test on IFVA/Mal/302/54 it was 0.02 µM.

Consider `Cn1nnc(C(c2ccccc2)N2CCN(C(=O)c3cc(-c4nc5cc(NC(=O)[C@H]6C[C@@H]6F)ccc5o4)ccn3)CC2)n1` (stereo partly drawn) [Compound 27, (1R,2S)-2-fluoro-N-(2-(2-(4-((2-methyl-2H-tetrazol-5-yl)(phenyl)methyl)piperazine-1-carbonyl)pyridin-4-yl)benzo[d]oxazol-5-yl)cyclopropane-1-carboxamide], for which the EC50 is 0.033 µM with IFVA/Weiss/43 (setting [1]) and 0.127 µM in the test with IFVA/Mal/302/54.

On to `Cn1nnc(C(c2ccccc2)N2CCN(C(=O)c3cc(-c4nc5cc(NC(=O)[C@H]6C[C@H]6F)ccc5o4)ccn3)CC2)n1` (stereo partly drawn) [Compound 28, (1R,2R)-2-fluoro-N-(2-(2-(4-((2-methyl-2H-tetrazol-5-yl)(phenyl)methyl)piperazine-1-carbonyl)pyridin-4-yl)benzo[d]oxazol-5-yl)cyclopropane-1-carboxamide], for which the values for the EC50 in the test with IFVA/Weiss/43 (setting [1]) and with IFVA/Mal/302/54 were 0.017 µM and 0.027 µM, respectively.

Regarding `O=C(Nc1ccc2oc(-c3ccnc(C(=O)N4CCN(C(c5ccccc5)c5nnn(C(F)F)n5)CC4)c3)nc2c1)[C@@H]1C[C@H]1F` (stereo partly drawn) [Compound 30, (1S,2R)-2-fluoro-N-(2-(2-(4-((2-difluoromethyl-2H-tetrazol-5-yl)(phenyl)methyl)piperazine-1-carbonyl)pyridin-4-yl)benzo[d]oxazol-5-yl)cyclopropane-1-carboxamide], the figures for the EC50 in the test on IFVA/Weiss/43 (setting [1]) and in the test with IFVA/Mal/302/54 were 0.012 µM and 0.027 µM, respectively.

As for `O=C(Nc1ccc2oc(-c3ccnc(C(=O)N4CCN(C(c5ccccc5)c5nnn(C(F)F)n5)CC4)c3)nc2c1)[C@H]1C[C@@H]1F` (stereo partly drawn) [Compound 32, (1R,2S)-2-fluoro-N-(2-(2-(4-((2-difluoromethyl-2H-tetrazol-5-yl)(phenyl)methyl)piperazine-1-carbonyl)pyridin-4-yl)benzo[d]oxazol-5-yl)cyclopropane-1-carboxamide], the EC50 in the test with IFVA/Weiss/43 (setting [1]) was determined as 0.026 µM; with IFVA/Mal/302/54, 0.003 µM.

Regarding `O=C(Nc1ccc2oc(-c3ccnc(C(=O)N4CCN(C(c5ccccc5)c5nnn(C(F)F)n5)CC4)c3)nc2c1)[C@H]1C[C@H]1F` (stereo partly drawn) [Compound 33, (1R,2R)-2-fluoro-N-(2-(2-(4-((2-difluoromethyl-2H-tetrazol-5-yl)(phenyl)methyl)piperazine-1-carbonyl)pyridin-4-yl)benzo[d]oxazol-5-yl)cyclopropane-1-carboxamide], the EC50 in the test with IFVA/Weiss/43 (setting [1]) was 0.016 µM; with IFVA/Mal/302/54 it was 0.031 µM.

With `CS(=O)(=O)Nc1ccc2oc(-c3ccnc(C(=O)N4CCN(C(c5ccccc5)c5nnn(C(F)F)n5)CC4)c3)nc2c1` (stereo not shown) [Compound 34], the EC50 with IFVA/Weiss/43 (setting [1]) and with IFVA/Mal/302/54 was above 10 µM each time.

For the compound `Cn1nnc(C(c2ccccc2)N2CCN(C(=O)c3cc(-c4nc5cc(NC(=O)C6CC6)ccc5o4)ccn3)CC2)n1` (stereo not shown) [Compound 35, N-(2-(2-(4-((2-methyl-2H-tetrazol-5-yl)(phenyl)methyl)piperazine-1-carbonyl)pyridin-4-yl)benzo[d]oxazol-5-yl)cyclopropanecarboxamide], the results for the EC50 with IFVA/Weiss/43 (setting [1]) and in the test on IFVA/Mal/302/54 were 0.012 µM and 0.019 µM, respectively.

For the compound `O=C(c1cc(-c2nc3cc(N4CCCC4=O)ccc3o2)ccn1)N1CCN(C(c2ccccc2)c2nnn(C(F)F)n2)CC1` (stereo not shown) [Compound 37, 1-(2-(2-(4-((2-(difluoromethyl)-2H-tetrazol-5-yl)(phenyl)methyl)piperazine-1-carbonyl)pyridin-4-yl)benzo[d]oxazol-5-yl)pyrrolidin-2-one], the EC50 stood at 0.017 µM in the test on IFVA/Weiss/43 (setting [1]) and 0.022 µM in the test on IFVA/Mal/302/54.

Consider `Cn1nnc(C(c2ccccc2)N2CCN(C(=O)c3cc(-c4nc5cc(O[C@H]6CCOC6)ccc5o4)ccn3)CC2)n1` (stereo partly drawn) [Compound 38, (4-((2-methyl-2H-tetrazol-5-yl)(phenyl)methyl)piperazin-1-yl)(4-(5-(((S)-tetrahydrofuran-3-yl)oxy)benzo[d]oxazol-2-yl)pyridin-2-yl)methanone], for which the EC50 in the test on IFVA/Weiss/43 (read-out: EC50(IFVA/Weiss/43), MDCK cells, CPE method, CCK-8 cell viability, 5 days) stood at 0.02 µM; in the test with IFVA/Mal/302/54, 0.018 µM.

As for `O=C(c1cc(-c2nc3cc(O[C@H]4CCOC4)ccc3o2)ccn1)N1CCN(C(c2ccccc2)c2nnn(C(F)F)n2)CC1` (stereo partly drawn) [Compound 39, (4-((2-(difluoromethyl)-2H-tetrazol-5-yl)(phenyl)methyl)piperazin-1-yl)(4-(5-(((S)-tetrahydrofuran-3-yl)oxy)benzo[d]oxazol-2-yl)pyridin-2-yl)methanone], the EC50 in the test on IFVA/Weiss/43 (setting [1]) was found to be 0.004 µM; with IFVA/Mal/302/54 it was 0.011 µM.

Turning to `CC(=O)Nc1ccc2oc(-c3ccnc(C(=O)N4CCN(C(c5ccccc5)c5nnn(C(F)F)n5)CC4)c3)nc2c1` (stereo not shown) [Compound 40, N-(2-(2-(4-((2-(difluoromethyl)-2H-tetrazol-5-yl)(phenyl)methyl)piperazine-1-carbonyl)pyridin-4-yl)benzo[d]oxazol-5-yl)acetamide], the EC50 with IFVA/Weiss/43 (setting [1]) was 0.016 µM; with IFVA/Mal/302/54, 0.024 µM.

Consider `Cn1nnc(C(c2ccccc2)N2CCN(C(=O)c3cc(-c4nc5cc(OC(F)F)ccc5o4)ccn3)CC2)n1` (stereo not shown) [Compound 44, (4-(5-(difluoromethoxy)benzo[d]oxazol-2-yl)pyridin-2-yl)(4-((2-methyl-2H-tetrazol-5-yl)(phenyl)methyl)piperazin-1-yl)methanone], for which the figures for the EC50 in the test with IFVA/Weiss/43 (setting [1]) and with IFVA/Mal/302/54 were 0.11 µM and 0.065 µM, respectively.

Consider `CC(=O)Nc1ccc2oc(-c3ccnc(C(=O)N4CCC(O)(C(c5ccccc5)c5nnn(C)n5)CC4)c3)nc2c1` (stereo not shown) [Compound 47, N-(2-(2-(4-hydroxy-4-((2-methyl-2H-tetrazol-5-yl)(phenyl)methyl)piperidine-1-carbonyl)pyridin-4-yl)benzo[d]oxazol-5-yl)acetamide], for which the values for the EC50 in the test with IFVA/Weiss/43 (setting [1]) and in the test with IFVA/Mal/302/54 were 0.035 µM and 0.081 µM, respectively.

For `CC(=O)Nc1ccc2oc(-c3ccnc(C(=O)N4CCC(=C(c5ccccc5)c5nnn(C)n5)CC4)c3)nc2c1` [Compound 49, N-(2-(2-(4-((2-methyl-2H-tetrazol-5-yl)(phenyl)methylene)piperidine-1-carbonyl)pyridin-4-yl)benzo[d]oxazol-5-yl)acetamide], the EC50 in the test with IFVA/Weiss/43 (setting [1]) stood at 0.112 µM; in the test with IFVA/Mal/302/54, 0.18 µM.

On to `Cn1nnc(C(c2ccccc2)N2CCN(C(=O)c3cc(-c4nc5cc(N6CCOC6=O)ccc5o4)ccn3)CC2)n1` (stereo not shown) [Compound 50, 3-(2-(2-(4-((2-methyl-2H-tetrazol-5-yl)(phenyl)methyl)piperazine-1-carbonyl)pyridin-4-yl)benzo[d]oxazol-5-yl)oxazolidin-2-one], for which the EC50 came out at 0.242 µM in the test on IFVA/Weiss/43 (setting [1]) and 0.12 µM in the test on IFVA/Mal/302/54.

`COC(=O)Nc1ccc2oc(-c3ccnc(C(=O)N4CCN(C(c5ccccc5)c5nnn(C)n5)CC4)c3)nc2c1` (stereo not shown) [Compound 51, Methyl (2-(2-(4-((2-methyl-2H-tetrazol-5-yl)(phenyl)methyl)piperazine-1-carbonyl)pyridin-4-yl)benzo[d]oxazol-5-yl)carbamate]: the figures for the EC50 with IFVA/Weiss/43 (setting [1]) and in the test on IFVA/Mal/302/54 were 0.084 µM and 0.034 µM, respectively.
